Source: patent US8557843B2, “Quinoline derivatives and their use as tyrosine kinase inhibitors” (ClanoTech AB, priority 2007, dated 2013)

Columns and labels:
[1] = test system: CNV (chorodial neovascularization); assay: Laser induced mouse eye model (CNV); type: in vivo; conditions: given orally at 50 mg/kg/day, laser-induced CNV in mice
Text: This laser-induced model of CNV is a highly reproducible model that mimics many features of CNV occurring in the wet form of age-related macular degeneration (AMD), the leading cause of blindness in the elderly.

alpha-v-beta-3 = target: T1, alpha-v-beta-3 (Homo sapiens, UniProt P05106+P06756); assay: Integrin assay: SHG, inhibition of RGD-peptide-induced conformational change; type: biochemical; conditions: compound pre-incubated at 100 μM for 20 minutes, then RGD peptide 400 μM; labeled alpha-v-beta-3
T1 construct: obtained from academic sources as recombinant, soluble proteins (the extracellular domain)
T1 sequence (P06756 31-992 limits assumed): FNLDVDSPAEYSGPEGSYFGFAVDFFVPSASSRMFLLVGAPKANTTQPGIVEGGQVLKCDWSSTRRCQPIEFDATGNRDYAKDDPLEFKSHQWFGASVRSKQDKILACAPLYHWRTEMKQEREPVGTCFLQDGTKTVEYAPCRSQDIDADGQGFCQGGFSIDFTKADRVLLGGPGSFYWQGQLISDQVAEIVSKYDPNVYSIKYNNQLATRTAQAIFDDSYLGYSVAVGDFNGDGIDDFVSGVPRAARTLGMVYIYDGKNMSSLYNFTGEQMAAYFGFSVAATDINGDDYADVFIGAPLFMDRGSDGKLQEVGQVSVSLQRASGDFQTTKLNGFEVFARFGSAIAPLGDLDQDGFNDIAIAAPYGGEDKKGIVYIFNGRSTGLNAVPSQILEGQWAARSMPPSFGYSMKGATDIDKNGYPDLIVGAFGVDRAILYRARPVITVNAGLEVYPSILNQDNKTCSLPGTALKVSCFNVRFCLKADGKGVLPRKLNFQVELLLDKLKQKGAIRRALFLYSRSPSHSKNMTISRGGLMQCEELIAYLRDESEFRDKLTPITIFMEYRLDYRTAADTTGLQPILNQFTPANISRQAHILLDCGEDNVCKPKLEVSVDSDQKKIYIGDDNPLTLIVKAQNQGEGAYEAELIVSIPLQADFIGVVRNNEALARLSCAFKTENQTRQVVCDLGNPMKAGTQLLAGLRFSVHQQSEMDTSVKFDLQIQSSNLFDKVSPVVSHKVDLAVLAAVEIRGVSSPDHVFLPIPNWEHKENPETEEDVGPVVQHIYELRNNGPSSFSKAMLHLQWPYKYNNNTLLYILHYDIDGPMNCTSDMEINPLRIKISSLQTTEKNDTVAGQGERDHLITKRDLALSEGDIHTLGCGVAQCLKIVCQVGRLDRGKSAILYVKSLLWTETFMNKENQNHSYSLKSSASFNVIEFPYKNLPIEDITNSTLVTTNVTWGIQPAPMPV
T1 sequence (P05106 27-718 limits assumed): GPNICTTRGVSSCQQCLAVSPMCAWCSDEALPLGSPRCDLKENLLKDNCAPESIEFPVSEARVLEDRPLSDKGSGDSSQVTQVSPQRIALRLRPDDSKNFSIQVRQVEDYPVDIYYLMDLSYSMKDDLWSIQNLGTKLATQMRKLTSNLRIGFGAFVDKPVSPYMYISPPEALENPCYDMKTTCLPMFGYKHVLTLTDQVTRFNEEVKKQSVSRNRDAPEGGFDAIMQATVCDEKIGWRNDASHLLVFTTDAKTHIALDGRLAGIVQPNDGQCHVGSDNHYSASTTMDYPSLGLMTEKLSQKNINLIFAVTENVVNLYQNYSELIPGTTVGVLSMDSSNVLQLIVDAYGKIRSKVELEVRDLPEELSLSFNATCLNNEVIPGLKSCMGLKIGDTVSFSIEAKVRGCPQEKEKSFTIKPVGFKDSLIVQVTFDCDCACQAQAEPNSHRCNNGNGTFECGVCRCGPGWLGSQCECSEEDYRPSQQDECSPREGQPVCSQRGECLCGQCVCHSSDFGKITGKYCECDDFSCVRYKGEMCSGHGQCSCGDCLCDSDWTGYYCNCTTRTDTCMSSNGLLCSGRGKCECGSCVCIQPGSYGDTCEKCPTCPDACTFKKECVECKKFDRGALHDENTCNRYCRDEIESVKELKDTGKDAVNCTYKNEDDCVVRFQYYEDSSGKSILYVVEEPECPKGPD
Protocol: (§1) This assay was conducted by Biodesy (Burlingame, Calif., USA). Purified integrins were obtained from academic and commercial sources. Alpha-5-beta-1 and alpha-v-beta-3 were obtained from academic sources as recombinant, soluble proteins (the extracellular domain).
(§2) A standard labeling protocol developed for integrins was applied to each of the three proteins. All proteins were successfully labeled with an average label:protein ratio of ˜4:1. The two soluble, labeled proteins (alpha5beta1 and alphavbeta3) produced background SHG (second-harmonic generation) signals. They also produced conformational change signals upon exposure to GRGDSP (RGD-peptide, a fibronectin-derived peptide Gly-Arg-Gly-Asp-Ser-Pro). The peptide was added at 400 μM and signal changes were immediate (FIG. 1).
(§3) Next, Example 4 was pre-incubated at 100 μM with the labeled proteins for 20 minutes. RGD peptide was then added (400 μM) to stimulate the protein and to test each compound for inhibition.

alpha-5-beta-1 = target: T2, alpha-5-beta-1 (Homo sapiens, UniProt P05556+P08648); assay: as above; type: biochemical; conditions: compound pre-incubated at 100 μM for 20 minutes, then RGD peptide 400 μM; labeled alpha-5-beta-1
T2 construct: obtained from academic sources as recombinant, soluble proteins (the extracellular domain)
T2 sequence (P08648 42-995 limits assumed): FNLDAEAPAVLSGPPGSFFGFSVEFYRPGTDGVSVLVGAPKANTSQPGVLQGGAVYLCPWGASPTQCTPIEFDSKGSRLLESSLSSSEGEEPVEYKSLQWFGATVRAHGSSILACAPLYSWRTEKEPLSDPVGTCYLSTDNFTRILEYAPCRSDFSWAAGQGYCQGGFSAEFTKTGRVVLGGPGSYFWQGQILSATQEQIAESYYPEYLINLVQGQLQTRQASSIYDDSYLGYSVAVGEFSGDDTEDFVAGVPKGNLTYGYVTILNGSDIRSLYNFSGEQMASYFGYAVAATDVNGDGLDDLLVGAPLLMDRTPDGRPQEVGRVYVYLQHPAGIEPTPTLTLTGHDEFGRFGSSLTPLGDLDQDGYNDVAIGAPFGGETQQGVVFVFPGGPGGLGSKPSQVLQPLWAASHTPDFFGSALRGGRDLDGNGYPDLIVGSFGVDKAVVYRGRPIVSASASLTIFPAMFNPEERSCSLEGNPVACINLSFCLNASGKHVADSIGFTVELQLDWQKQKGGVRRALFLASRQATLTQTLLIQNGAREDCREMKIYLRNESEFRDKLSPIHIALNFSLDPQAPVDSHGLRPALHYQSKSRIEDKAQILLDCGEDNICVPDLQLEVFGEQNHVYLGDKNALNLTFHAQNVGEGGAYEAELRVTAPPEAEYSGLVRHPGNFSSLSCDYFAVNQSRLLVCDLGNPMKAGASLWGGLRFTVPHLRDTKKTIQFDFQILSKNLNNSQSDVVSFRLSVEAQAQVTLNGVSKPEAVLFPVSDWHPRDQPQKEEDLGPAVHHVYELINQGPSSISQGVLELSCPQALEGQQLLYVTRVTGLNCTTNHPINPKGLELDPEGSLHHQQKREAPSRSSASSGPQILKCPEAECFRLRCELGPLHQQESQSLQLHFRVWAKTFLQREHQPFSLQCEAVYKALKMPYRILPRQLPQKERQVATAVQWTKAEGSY
T2 sequence (P05556 21-728 limits assumed): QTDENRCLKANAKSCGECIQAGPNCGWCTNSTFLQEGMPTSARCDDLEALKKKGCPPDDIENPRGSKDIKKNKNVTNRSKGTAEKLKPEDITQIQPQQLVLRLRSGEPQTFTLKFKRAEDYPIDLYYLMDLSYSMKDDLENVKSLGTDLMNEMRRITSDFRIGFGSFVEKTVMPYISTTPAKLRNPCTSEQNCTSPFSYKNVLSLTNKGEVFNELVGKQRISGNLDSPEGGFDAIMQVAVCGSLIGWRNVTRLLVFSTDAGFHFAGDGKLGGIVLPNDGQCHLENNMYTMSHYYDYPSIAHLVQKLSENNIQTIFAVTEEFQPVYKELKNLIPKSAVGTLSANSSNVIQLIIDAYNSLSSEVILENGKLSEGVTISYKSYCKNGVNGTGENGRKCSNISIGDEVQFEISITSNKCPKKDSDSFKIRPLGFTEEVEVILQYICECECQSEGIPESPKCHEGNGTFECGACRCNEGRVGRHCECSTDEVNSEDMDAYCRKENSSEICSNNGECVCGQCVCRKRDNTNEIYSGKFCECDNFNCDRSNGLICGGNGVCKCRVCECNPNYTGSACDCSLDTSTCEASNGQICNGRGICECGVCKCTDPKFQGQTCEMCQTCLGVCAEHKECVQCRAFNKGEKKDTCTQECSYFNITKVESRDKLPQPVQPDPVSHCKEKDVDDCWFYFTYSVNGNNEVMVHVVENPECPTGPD
Protocol: as §1, §2, §3

[2] = test system: human Calu-6 lung cancer cells; assay: Tumor xenograft model; type: in vivo, SCID mice; conditions: 25 mg/kg/day; for inhibition of tumor volume: once daily for 17 days, Calu-6 subcutaneous in SCID mice
Protocol: Female 6-week-old SCID mice were used for tumor studies. Approximately 10^6 human Calu-6 lung cancer cells growing in logarithmic phase were harvested and resuspended in media, and a single cell solution in a volume of […] was implanted subcutaneously at the right flank of each animal. 10 mice were used in the treated groups and 10 mice were used in the control groups. Systemic treatment by oral administration or iv injections with either […] of vehicle or active substance (25 mg/kg/day) was begun when tumors reached a size of 300 mm^3 and continued once daily for a total of 17 days. Visible tumors were present day 5-10 after implantation. Primary tumors were measured with digital calipers on the days indicated. Tumor volumes were calculated according to the formula: Length×width^2×0.52 as reported.

For `CNC(=O)c1ccc2ncc(C(=O)O)c(Nc3ccc(OC)cc3)c2c1` [Example 4, 4-[(4-Methoxyphenyl)amino]-6-(methylcarbamoyl)quinoline-3-carboxylic Acid], the “inhibition of CNV growth in eye compared with control” value [1] was 42%, the “effect on RGD-induced conformational change (SHG signal)” value (alpha-v-beta-3) was “no effect” and the “effect on RGD-induced conformational change (SHG signal)” value (alpha-5-beta-1) was “prevented RGD-induced conformational change”. The inhibition of angiogenesis ([2]; both groups (oral and iv), Calu-6 xenograft) was “inhibits angiogenesis significantly”, the “inhibition of tumor volume” value ([2]; iv treatment) was 71% and the “inhibition of tumor volume” value ([2]; oral treatment) was 52%.
